Where two headings read alike, the source gives them in different places.

The target of series [1] is T1, hCA I (Homo sapiens, UniProt P00915).
T1 construct: made in house
The experiment in a line: CA inhibition, stopped-flow CO2 hydration assay. It is filed as biochemical. The conditions noted are these: stopped-flow technique; mean from three assays. The method, then:
(§1) The CO2 hydration activity of the four hCA isoforms was monitored using an Applied Photophysics stopped-flow instrument. Phenol red (at a concentration of 0.2 mM) was used as an indicator, working at the absorbance maximum of 557 nm, with 10 mM HEPES (pH 7.4) as a buffer, and 20 mM NaClO4 (for maintaining constant the ionic strength), following the initial rates of the CA-catalyzed CO2 hydration reaction for a period of 10–100 s. To determine the kinetic parameters by Lineweaver-Burk plots and the inhibition constants, a concentration of CO2 between 1.7 to 17 mM was used. At least six measurements of the original 5–10% reaction were used to assess the initial velocity for each inhibitor. The uncatalyzed rates were determined and detracted from the total observed rates. Stock inhibitor solutions (10–100 mM) were prepared in distilled-deionized water, and dilutions up to 0.1 nM were done with the buffer test. […] The inhibition constants were obtained by non-linear least-squares methods using PRISM 6 and the Cheng-Prusoff equation, as reported earlier, and represent the mean from at least three different determinations.

Series [2] addresses T2, hCA II (Homo sapiens, UniProt P00918).
T2 construct: made in house
The experiment in a line: CA inhibition, stopped-flow CO2 hydration assay. The conditions noted are these: stopped-flow technique; mean from three assays. It is filed as biochemical. The method, then: as §1

For series [3], the target named is T3, hCA XII (Homo sapiens, UniProt O43570).
T3 construct: made in house
T3 sequence (O43570 25-354): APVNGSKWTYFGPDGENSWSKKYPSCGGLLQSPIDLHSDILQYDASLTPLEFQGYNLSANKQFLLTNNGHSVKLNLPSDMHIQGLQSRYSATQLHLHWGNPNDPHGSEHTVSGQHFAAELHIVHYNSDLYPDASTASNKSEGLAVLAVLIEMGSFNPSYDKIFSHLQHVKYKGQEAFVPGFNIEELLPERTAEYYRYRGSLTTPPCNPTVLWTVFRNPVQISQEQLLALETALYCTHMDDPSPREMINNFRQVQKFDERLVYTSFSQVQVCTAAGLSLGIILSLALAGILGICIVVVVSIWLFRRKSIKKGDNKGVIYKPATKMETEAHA
The experiment in a line: CA inhibition, stopped-flow CO2 hydration assay. Type of series: biochemical. The conditions noted are these: stopped-flow technique; mean from three assays. The method, then:
as §1

Series [4] concerns the target T4, hCA IX (Homo sapiens, UniProt Q16790).
T4 construct: made in house
The experiment in a line: CA inhibition, stopped-flow CO2 hydration assay. Type of series: biochemical. Particulars: stopped-flow technique; mean from three assays. The method, then:
as §1

Series [5] has as its system A431 skin cancer cells. The experiment in a line: Antiproliferative activity, MTT test. It is filed as cell-based, human. The conditions noted are these: 72 h, normoxia. The source says:
To evaluate the influence of CA inhibition on the antiproliferative activity, we selected five compounds 4b, f, m, n and 10 with different inhibition profiles against CA IX for in-depth testing on cancer cells with increased CA IX expression. The database www.proteinatlas.org (accessed on 13 October 2022) contains data on gene expression in various cell lines. According to the data obtained from this database, A431 cells express CA IX at a very high level, which distinguishes them from human cell lines belonging to other tissues [https://www.proteinatlas.org/ENSG00000107159-CA9/cell+line (accessed on 13 October 2022)]. A431 cells are skin cancer cells, and their growth has already been intensely analyzed in hypoxia. […] Moreover, Ren and colleagues described that hypoxia modulates cellular pathways in A431 cells, which are associated with radioresistance and enhanced migration. Given the observations described above, we were expecting to reveal the high antiproliferative activity of the selected compounds against skin cancer cells. […] In hypoxia, the activity of tested compounds was increased, but the 50% inhibition of growth was never achieved.
(§2) The MCF7 human breast, A431 human skin cancer cells and K562 (ATCC CCL-243) chronic myelogenous leukemia cells were obtained from the ATCC collection. The MDR subline K562/4 [77] […] The growth inhibitory activity of compounds was assessed by the MTT test based on the metabolism of the MTT reagent (3-[4,5-dimethylthiazol-2-yl]-2,5-diphenyltetrazolium bromide) (Applichem) in living cells, with modifications as described previously in [49]. […] Culture plates were gently shaken, and the absorbance was measured at 571 nm with a reference wavelength of 630 nm on a MultiScan reader (ThermoFisher, Waltham, MA, USA). The viability of the cells was expressed as a percentage of the control. Dose-response curves were analyzed by regression analysis using sigmoid curves (Log(concentration) vs. normalized absorbance).

For series [6], the system named is MCF7 cells. The experiment in a line: Antiproliferative activity, MTT test. Type of series: cell-based. The conditions noted are these: Homo sapiens, MTT assay after 72 h exposure. The method, then: A series of synthesized indoline-5-sulfonamides was tested on the MCF7 cancer cell line under normoxia and hypoxia using the MTT test.
The MDR subline K562/4 [77] (kind gift of Dr. Alexander Shtil, Blokhin N.N. National Medical Research Center of Oncology) was obtained by stepwise selection of K562 cells for survival under continuous exposure to Dox. This subline expresses the MDR1 gene and functional P-gp and is characterized by a high resistance index for Dox. […] Cells in the logarithmic phase of growth were used in the experiments. The growth inhibitory activity of compounds was assessed by the MTT test based on the metabolism of the MTT reagent (3-[4,5-dimethylthiazol-2-yl]-2,5-diphenyltetrazolium bromide) (Applichem) in living cells, with modifications as described previously in [49]. Compounds at different concentrations in 100 μL of the appropriate medium were added, and the cells were grown for 72 h. The hypoxia (1% O2) conditions were simulated in Binder multigas incubator, as described in [49]. After incubation with compounds, the medium was removed, the MTT reagent that was dissolved in the medium was added to the final concentration of 0.2 mg/mL to each well, and the incubation was performed for 2 h. Then the cell supernatants were removed, and purple formazan crystals were dissolved in 100% DMSO (350 μL per well). Culture plates were gently shaken, and the absorbance was measured at 571 nm with a reference wavelength of 630 nm on a MultiScan reader (ThermoFisher, Waltham, MA, USA). The viability of the cells was expressed as a percentage of the control. Dose-response curves were analyzed by regression analysis using sigmoid curves (Log(concentration) vs. normalized absorbance).
All results were reported as means ± SD. One-way analysis of variance was used for the analysis of data. Differences were defined as significant at p < 0.05. GraphPad Prism7 (GraphPad Software, San Diego, CA, USA) was used for the determination of the half-maximal inhibitory concentration (IC50) values.
On the technique in general: Tetrazolium assays rely on reduction of a dye to a coloured formazan, in cell work by metabolically active cells.

The test system of series [7] is K562 cells. Kind of series: Antiproliferative activity, MTT test. It is filed as cell-based, human.
Text: Next, we examined the activity of the whole series of indoline-5-sulfonamides against leukemia cell line K562.
as §2, with “[77] (kind gift of Dr. Alexander Shtil, Blokhin N.N. National Medical Research Center of Oncology) was obtained by stepwise selection of K562 cells for survival under continuous exposure to Dox. This subline expresses the MDR1 gene and functional P-gp and is characterized by a high resistance index for Dox.” for “[77]”

In series [8] the test system is K562/4 cells. The experiment in a line: Reversal of chemoresistance to Dox, MTT test. Type of series: cell-based, human. The text has this:
Earlier, Kopecka and colleagues have shown that CA XII can interact with P-gp and influence its activity. Subsequently, silencing or inhibition of CA XII by chemical agents may restore the sensitivity to Dox of resistant K562 and other tumor cells. Given the potent inhibition of 4f against CA XII and the activity of 4e against K562, we examined their ability to reverse the chemoresistance of K562/4 with P-gp to Dox.
The MCF7 human breast, A431 human skin cancer cells and K562 (ATCC CCL-243) chronic myelogenous leukemia cells were obtained from the ATCC collection. The MDR subline K562/4 [77] (kind gift of Dr. Alexander Shtil, Blokhin N.N. National Medical Research Center of Oncology) was obtained by stepwise selection of K562 cells for survival under continuous exposure to Dox. This subline expresses the MDR1 gene and functional P-gp and is characterized by a high resistance index for Dox. The MCF7 and A431 cells were cultured in standard 4.5 g/L glucose DMEM medium (Gibco) supplemented with 10% FCS (HyClone), 2 mM L-glutamine, 50 U/mL penicillin, 50 µg/mL streptomycin (PanEco), 100 µg/mL sodium pyruvate (Santa Cruz) at 37 °C, 5% CO2 and 80–85% humidity in NuAire incubator. Suspension myelogenous leukemia cells (K562, K562/4) were propagated in RPMI-1640 (PanEco) with 5% FCS (HyClone), 2 mM L-glutamine, 100 U/mL penicillin, and 100 µg/mL streptomycin at 37 °C, 5% CO2, and 80–85% humidity in Binder incubator. Cells in the logarithmic phase of growth were used in the experiments. The growth inhibitory activity of compounds was assessed by the MTT test based on the metabolism of the MTT reagent (3-[4,5-dimethylthiazol-2-yl]-2,5-diphenyltetrazolium bromide) (Applichem) in living cells, with modifications as described previously in [49]. Compounds at different concentrations in 100 μL of the appropriate medium were added, and the cells were grown for 72 h. The hypoxia (1% O2) conditions were simulated in Binder multigas incubator, as described in [49]. After incubation with compounds, the medium was removed, the MTT reagent that was dissolved in the medium was added to the final concentration of 0.2 mg/mL to each well, and the incubation was performed for 2 h. Then the cell supernatants were removed, and purple formazan crystals were dissolved in 100% DMSO (350 μL per well). Culture plates were gently shaken, and the absorbance was measured at 571 nm with a reference wavelength of 630 nm on a MultiScan reader (ThermoFisher, Waltham, MA, USA). The viability of the cells was expressed as a percentage of the control. Dose-response curves were analyzed by regression analysis using sigmoid curves (Log(concentration) vs. normalized absorbance).
Figure 6 Susceptibility of resistant K562/4 line to combinations of Dox (25 µM) with indoline-5-sulfonamides 4e and 4f. […]

[9] abbreviates: hypoxia (1% O2), read-out: IC50 against MCF7 Cells, Hypoxia.
The mark [10] stands for this setting: normoxia, read-out: IC50 against MCF7 Cells, Normoxia.

T1 sequence (P00915 whole entry): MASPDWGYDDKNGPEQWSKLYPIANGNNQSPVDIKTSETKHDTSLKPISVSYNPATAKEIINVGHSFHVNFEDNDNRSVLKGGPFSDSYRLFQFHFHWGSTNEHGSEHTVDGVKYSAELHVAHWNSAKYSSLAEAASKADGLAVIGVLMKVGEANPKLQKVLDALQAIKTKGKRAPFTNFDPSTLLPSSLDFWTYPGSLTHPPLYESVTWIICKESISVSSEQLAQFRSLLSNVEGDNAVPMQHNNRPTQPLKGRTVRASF

Consider `NS(=O)(=O)c1ccc2c(c1)CCN2C(=O)c1cccc(F)c1` [Compound 4b, 1-(3-Fluorobenzoyl)indoline-5-sulfonamide], for which the melting point – broadly, the temperature of the solid-liquid transition – was over 250 °C. Moreover, in series [1], the Ki (usually a dissociation constant, usually derived from enzyme kinetics or from competition with a known ligand) came out at 0.0659 µM. In series [2], this compound returned a Ki of 0.0056 µM. In series [3], this compound yielded an inhibition constant Ki of over 10 µM. In series [4], the Ki is over 10 µM. For the same compound, the “inhibition of growth of A431 cells, normoxia” value in series [5] is “least active”. Moreover, the IC50 – broadly, the concentration that inhibits the measured activity by half – in series [6] (setting [9]) is over 50 µM. The IC50 in [6] (setting [10]) is over 50 µM.

As for `NS(=O)(=O)c1ccc2c(c1)CCN2C(=O)c1c(F)c(F)c(F)c(F)c1F` [Compound 4e, 1-(Perfluorobenzoyl)indoline-5-sulfonamide], the melting point was in the range of 187 to 189 °C. Further, in series [7], the “concentration inhibiting growth of K562 cells” value was found to be 10 µM. Further, the affinity in series [1], expressed as Ki, was 0.0522 µM. In series [2], the Ki came out at 0.0034 µM. The affinity in [3], expressed as Ki, was 0.127 µM. Also, in [4], the Ki is 1.3 µM. In addition, the IC50 in [6] (setting [9]) amounted to 20.2 ± 2 µM. The IC50 in series [6] (setting [10]) was found to be 29.9 ± 2.7 µM. Also, in [8] (combination with Dox (25 µM)), the “effect of combination with Dox on viable K562/4 cells” value was “decline of viable K562/4 cells”. In [8] (monoagent), the “cytotoxic activity against MDR subline K562/4 as monoagent” value was “low cytotoxic activity”.

For `COc1cc(C(=O)N2CCc3cc(S(N)(=O)=O)ccc32)cc(OC)c1OC` [Compound 4m, 1-(3,4,5-Trimethoxybenzoyl)indoline-5-sulfonamide], the melting point lay in the range of 248 to 250 °C. Also, in [1], the Ki is 0.049 µM. The affinity in [2], expressed as Ki, was 0.003 µM. In [3], this compound displayed a Ki of 0.103 µM. In series [4], this compound returned a Ki of over 10 µM. The “inhibition of growth of A431 cells, normoxia” value in series [5] is “least active”. Moreover, the IC50 in series [6] (setting [9]) worked out at 36.7 ± 3.2 µM. Further, the IC50 in series [6] (setting [10]) was 29.6 ± 2.2 µM.

The compound `NS(=O)(=O)c1ccc2c(c1)CCN2Cc1ccccc1` [Compound 10, 1-Benzylindoline-5-sulfonamide] gave a melting point of 144 to 146 °C. The compound further displayed a Ki in [1] of 0.041 µM. Also, affinity in [2] was put at a Ki of 0.003 µM. For the same compound, the Ki in [3] is over 10 µM. In series [4], the Ki was over 10 µM. Further, in series [6] (setting [9]), the IC50 is 34.8 ± 3.2 µM. Also, the IC50 in series [6] (setting [10]) is 23.6 ± 2 µM.

These data come from paper PMC9783868, “Indoline-5-Sulfonamides: A Role of the Core in Inhibition of Cancer-Related Carbonic Anhydrases, Antiproliferative Activity and Circumventing of Multidrug Resistance” (Pharmaceuticals, 2022).
